Measured values published in patent publication US6552006B2, “Immunomodulatory polynucleotides in treatment of an infection by an intracellular pathogen” (The Regents of the University of California, priority 2000, dated 2003).

How the values were obtained:
[1] = system: spleen and liver of M. avium-infected mice; assay: Histologic examination of spleen and liver of M. avium-infected mice; assay type: in vivo
Method: Sections of the spleen and liver collected from the experimental and control M. avium-infected mice at 2, 4, and 6 weeks post-infection, were fixed overnight in 10% buffered formalin at room temperature, and embedded in paraffin. The paraffin-embedded tissue was further sectioned (5 μm thickness), stained with hematoxylin-eosin and observed under an Olympus microscope. At least three sections from each organ of each of the experimental and control mice were evaluated and representative fields were viewed at 100×.

[2] = system: M. avium; assay: Intracellular growth of M. avium in human monocyte-derived macrophages (hMDM) in vitro, CFU assay; assay type: cell-based, Mycobacterium avium; conditions: for enhancement of the anti-mycobacterial effect of clarithromycin: compared to antibiotic alone
Method: A previously studied M. avium strain 13 (Hayashi, et al. (1999) Infect. Immun. 67:3558-3565; Meylan, et al. (1990) Infect. Immun. 58:2564-2568), isolated from an AIDS patient at UCSD, San Diego, Calif., was used in all experiments. The organism was cultured on Middlebrook 7H11 agar (Difco Laboratories, Detroit, Mich.) with OADC enrichment at 37° C. in the presence of 5% CO2 for two weeks. Transparent colonies were selectively picked and further cultured on Middlebrook 7H11 plates for two more weeks. The resulting colonies, which were predominantly transparent (>90%), were then collected and washed two times with phosphate-buffered saline (PBS). The bacteria were finally resuspended in Middlebrook 7H9 broth (Difco Laboratories) and the OD600 of the suspension was adjusted to 0.15-0.2. The suspension was aliquoted and stored at −70° C. until use. The number of organisms/ml of this suspension was determined by the colony forming unit (CFU) assay.
The number of CFU in a given sample was determined by colony counting as described previously (Ogata, et al. (1992) Infect. Immun. 60:4720-4725). Serial 10-fold dilutions of total cell lysates or tissue homogenates were performed in PBS. 10 μl of each dilution were plated on Middlebrook 7H11 plates supplemented with OADC enrichment. The plates were incubated up to 14 days at 37° C. The number of colonies was counted every alternate day from day 10 onwards until no new colonies appeared. This yielded the number of CFU/10 μl. The number of CFU in each well was then calculated.
Monocytes were isolated from normal human buffy coats obtained from the San Diego Blood Bank by Ficoll-Hypaque and Percoll gradient centrifugation (Hayashi, et al. (1997) Infect. Immun. 65:5262-5271). Purity of the monocytes by this method was greater than 70%. The monocytes thus isolated were cultured for five to seven days in Iscove's Modified Dulbecco's Medium (BioWhittaker, Walkersville, Md.) supplemented with 10% normal human serum (Irvine Scientific, Santa Ana, Calif.), 2 mM L-glutamine and 50 units/ml penicillin-streptomycin in Teflon beakers to yield human monocyte-derived macrophages (hMDM). These hMDM were further enriched by adherence to the wells of tissue culture plates before use in experiments. Purity of hMDM after the second adherence assessed by esterase staining was >95%. Viability determined by trypan blue exclusion was >97%.
hMDM (6×10^4) were, adhered to the wells of 96-well tissue culture plates for two hours and non-adherent cells were removed by washing with warm RPMI-1640. Adherent cells were treated with ISS at 3, 10, or 30 μg/ml for 72 h before infection with M. avium. Cells treated with M-ODN at 10 μg/ml or with media alone served as controls. After 72 h, the cells were washed two times and infected with M. avium in RPMI-1640 supplemented with 5% heat-inactivated fetal bovine serum (FBS, Irvine Scientific) at a cell:bacteria ratio of 1:5-1:10. On days 1, 3 and 7 after infection, the total number of colony forming units (CFU) in each well was determined. The supernatant was collected and set aside and the adherent cells were lysed. To account for all the mycobacteria in each well, corresponding lysates and supernatants were combined and used to determine the number of CFU. Experiments were done in triplicate and results were expressed as mean±SD of CFU per well.
Alternatively, 5×10^4 mBMDM or hMDM was treated with ISS for 3 days before infection. Macrophages treated with M-ODN or with media alone served as controls. After 3 days, the cells were infected for 2 hrs with M. avium at a macrophage:bacteria ratio of 2:1 for mBMDM or of 1:10 for hMDM, and subsequently cultured in fresh media without antibiotics. To examine attachment and/or invasion of M. avium, the macrophages were lysed immediately after washing, and the number of bacteria were enumerated by the CFU assay. Intracellular growth of M. avium was determined on days 1, 3, and 7 after infection. […]

[3] = system: IFN-γ producing CD4+ and CD8+ T cells; assay: Intracellular IFN-γ staining and secreted IFN-γ ELISA of re-stimulated splenocytes from M. avium-infected mice; assay type: in vivo; conditions: ISS 50 μg/mouse; 10^7 organisms/mouse; three weeks post-infection; anti-CD3/anti-CD28 re-stimulation
Method: Mice were injected intradermally (i.d.) with ISS (50 μg/mouse). The control mice received M-ODN (50 μg/mouse) or PBS (50 μl/mouse). All mice were infected with 1×10^7 M. avium. Three weeks after infection, the mice were sacrificed and splenocytes from mice receiving the same treatment were pooled. Intracellular cytokine staining was performed using the Cytofix/Cytoperm kit (Pharmingen) according to the manufacturer's instructions. Briefly, the splenocytes were stimulated with anti-CD3 and anti-CD28 activating antibodies in the presence of monensin to allow intracellular IFN-γ to accumulate for 6 hrs. Next, surface CD4 and CD8 were stained for, the cells were fixed, and the plasma membranes were permeabilized, allowing for intracellular staining with anti-IFN-γ. The cells were analyzed on a FACSCalibur flow cytometer (Becton Dickenson). To study IFN-γ production, splenocytes were incubated with anti-CD3 and anti-CD28 antibodies in vitro for 24 hrs, and these supernatants were assayed for the presence of IFN-γ by sandwich ELISA (Martin-Orozco, et al. (1999) Int. Immun. 11:1111-1118).

[4] = system: M. avium; assay: Growth of M. avium in vivo in C57B1/6 mice, CFU per organ; parameters: species or system Mycobacterium avium; conditions: for viable bacteria in the lungs: week 2
[5] = ISS 3 days before i.v. infection, 10^7 organisms/mouse, four weeks after infection, vs M-ODN and PBS mice

Substance: 5′-TGACTGTGAACGTTCGAGATGA-3′ (SEQ ID NO:1) [ISS]
- histopathology of the livers ([1]; vs PBS-treated infected mice): no significant histopathological differences
- granulomas in the spleen ([1]; week 4, vs infected mice treated with PBS): notably smaller in size and surrounded by mononuclear cells
- granulomas in the spleens ([1]; week 6, vs PBS-treated infected mice): not significantly different
- decrease of intracellular growth of M. avium ([2]; established infection, infected hMDM treated with ISS 10 μg/ml for 7 days): 53%
- inhibition of intracellular growth of M. avium ([2]; hMDM (5×10^4/well) treated 3 days before infection, 7 days post-infection (FIG. 4A)): 91%
- inhibition of intracellular growth of M. avium ([2]; hMDM pretreated 72 h with 3 μg/ml ISS before infection, day 7, vs medium alone or M-ODN): 91.3±1.7%
- growth inhibition at the higher concentrations of ISS tested ([2]; hMDM pretreated with 10 or 30 μg/ml vs 3 μg/ml ISS): no further increase in growth inhibition
- inhibition of growth of M. avium ([2]; hMDM, ISS (10 µg/mL) immediately after infection (0 day), CFU at day 7, vs medium alone): 53±18%
- inhibition of growth of M. avium ([2]; hMDM, ISS (10 µg/mL) one day after infection (+1 day), CFU at day 7, vs medium alone): 36±16%
- inhibition of intracellular growth of M. avium ([2]; hMDM, ISS (10 µg/mL) pretreatment three days before infection (−3 days), CFU at day 7, vs medium alone): 51±4%
- inhibition of intracellular growth of M. avium ([2]; infected hMDM, ISS 10 μg/ml alone, day 7): 38±7%
- enhancement of the anti-mycobacterial effect of clarithromycin ([2]; infected hMDM, ISS 10 μg/ml with 1 μg/ml clarithromycin, day 7): 89±5%
- enhancement of the anti-mycobacterial effect of clarithromycin ([2]; infected hMDM, ISS 10 μg/ml with 4 μg/ml clarithromycin, day 7): 63±12%
- frequency of infection-specific IFN-γ positive CD4+ or CD8+ T cells [3]: did not further increase
- growth of M. avium in the therapeutic model ([4]; C57B1/6 mice, 10^7 CFU i.v., ISS-ODN 50 μg/mouse alone one week after infection, 5 weeks after infection): did not inhibit the growth of M. avium
- viable bacteria in the lungs ([4]; ISS 100 μg/mouse i.d. 3 days before infection, 10^6 organisms/mouse, vs PBS): significantly lower number of viable bacteria
- difference of CFU in the lungs, controls vs ISS-treated mice [4, 5]: 1 log
- difference of CFU in the spleen, controls vs ISS-treated mice [4, 5]: 2 logs
- number of bacteria in the spleen ([4]; ISS i.d. 3 days before infection, 10^6 organisms/mouse, vs PBS, effects maximal at 4 weeks): almost two logs lower number of bacteria
- CFU in the spleen ([4]; ISS pretreatment, 10^6 organisms/mouse, week 6, vs PBS): equaled that observed in the control mice
- bacterial load in the lungs ([4]; ISS pretreatment, 10^6 organisms/mouse, week 6, vs control mice): exceeded that found in the lungs of control mice
- bacterial loads in the liver ([4]; ISS pretreatment, 10^6 organisms/mouse, weeks 2, 4, 6, vs PBS): no significant difference
- bacteria in the spleen ([4]; ISS prior to infection, 10^7 organisms/mouse, 4 weeks, vs PBS): nearly two logs less bacteria
- splenic CFU counts ([4]; ISS prior to infection, 10^7 organisms/mouse, 6 weeks, vs control): similar
- viable bacteria in the lungs ([4]; ISS prior to infection, 10^7 organisms/mouse, vs PBS): significantly lower number of viable bacteria
- mycobacterial loads in the liver ([4]; ISS prior to infection, 10^7 organisms/mouse, weeks 2, 4, 6, vs PBS): no significant difference
- persistence of the protective effect after administration ([4]; single injection of ISS, 10^6 organisms/mouse): up to four weeks
